The source of these data is US10732172B1, “Methods, systems, and compositions for determining blood clot formation, and uses thereof” (President and Fellows of Harvard College, priority 2015, dated 2020).

Entries after “also recorded” stand apart in the source; their conditions may differ.

One assay has as its system HUVECs and platelets. The assay is described as follows: Platelet adhesion and dynamics on TNF-α stimulated endothelium (living or fixed), whole blood perfusion. It counts as cell-based, human. The following applies: TNF-α 5 ng/ml before fixation; kept 1 day or 5 days; versus no TNF-α.
The next assay deals with HUVECs. In words: Immunostaining of TNF-α stimulated endothelium in microchannel. It counts as cell-based, human. The method, then: The microfluidic devices are left overnight at 37° C. in a 5% carbon dioxide (“CO2”) incubator, after which they are rinsed with Endothelial Growth Medium-2 (“EGM-2”) from Lonza. Human Umbilical Vein Endothelial Cells (“HUVEC”) from a mixed donor, by Lonza, are kept in culture and suspended at 12.5 million cells/milliliter (“mL”) in EGM-2, after confluence. The suspension is introduced into the collagen-coated microchannels, after which the microfluidic devices are incubated upside down for 20 minutes. A fresh HUVEC suspension is then introduced in the microchannels, after which the microfluidic devices are incubated for eight hours to promote cell attachment across the channel. The microchannels are, then, rinsed with EGM-2, sometimes containing a freshly prepared solution of tumor necrosis factor (“TNF-α”), which is a recombinant from E. coli from Sigma. Antibodies against intercellular adhesion molecule-1 (“ICAM-1”) and vascular adhesion molecule-1 (“VCAM-1”), tissue factor (from Santa Cruz), VWF (from Abcam) and VE-Cadherin (from Santa Cruz) were perfused into the microfluidic devices after fixing the endothelium with 2% paraformaldehyde for ten minutes, incubating the endothelium for three hours, and counterstaining with a secondary fluorescent IgG antibody for three hours.
Multiple endothelial adhesion molecules are involved in the recruitment of blood cells and platelets in thrombosis in vivo. In previous studies, treatment of a living endothelium cultured in microfluidic channels with TNF-α results in an increase in expression of surface adhesion molecules, such as ICAM-1 and VCAM-1 within four hours after addition. To explore whether a fixed endothelium retains expression of these and other surface molecules that could potentially exacerbate thrombosis, the endothelium is first activated in the device by adding increasing doses of TNF-α, e.g., 0, 5, and 100 nanograms/millliter (“ng/ml”), for approximately 18 hours. The endothelium cells are fixed with 4% paraformaldehyde in phosphate-buffered saline (“PBS”) for 15 minutes at room temperature, are rinsed three times with PBS, and, then, stored in PBS at 4° C. in a humid environment.
Human umbilical vein endothelial cells (HUVECs, Lonza) were cultured in Endothelial Growth Medium-2 (EGM-2, Lonza) and used between passages 3 and 7. Before seeding HUVECs in the devices, the microchannels were pre-treated with 1% (3-aminopropyl)-trimethoxysilane in phosphate-buffered saline (PBS) for 10 min, flushed sequentially with 70% ethanol in water and 100% ethanol, and then incubated at 80° C. for two hours before rat tail collagen I (100 μg/ml in PBS; BD Biosciences) was introduced in the channels. Some of the devices were used with the collagen coating alone (without cells) after incubation overnight at 37° C. and flushing of the channels with EGM-2. In other studies for comparison, HUVECs (12.5×10^6 cells/ml) were introduced into the collagen-coated channels and incubated for 20 min at 37° C. to promote cell attachment before a second similar HUVEC suspension was then introduced and the devices were incubated upside down for an additional 20 min to seed the cells on the ceiling and walls of the microfluidic channels. Channels were then flushed with EGM-2 and the devices were incubated at 37° C. under 5% CO2 for 24 hours to promote HUVEC monolayer formation on all exposed surfaces of the microchannel. In some cases, the medium was supplemented with one or more inflammatory cytokines (e.g., 5 or 100 ng/ml TNF-α (Sigma)) to activate the HUVEC monolayer. Fluorescence microscopy was performed on endothelium that was fixed with 4% formaldehyde (Sigma) and stained with antibodies against TF (Santa Cruz), vWF (Abeam), VE-Cadherin (Santa Cruz), followed by counterstaining with phalloidin and DAPI (Invitrogen).

[1] abbreviates: TNF-α before fixation, versus untreated.

In the case of tumor necrosis factor-α [TNF-α], the “platelet adhesion rate on fixed HUVECs” value with HUVECs and platelets was “significantly higher”. Besides, in the assay on HUVECs (HUVECs stimulated with various doses of TNF-α), the “ICAM-1 expression on living endothelium” value is “increased with increase in TNF concentration; also recorded: dose-dependent activation of ICAM-1; also recorded: dose-dependent surface expression of adhesion molecule ICAM-1; also recorded: increased in a dose-dependent manner”. Further, in the assay on HUVECs (HUVECs, TNF-α 5 or 100 ng/ml), the “tissue factor (TF) expression on living endothelium” value was “increase in the endothelial expression” and the “von Willebrand Factor (vWF) expression on living endothelium” value was “increase in the endothelial expression”. For the same substance, the “VCAM-1 immunofluorescence on fixed endothelium” value in the assay with HUVECs (TNF-α 0, 5, 100 ng/ml for about 18 hours before fixation) was “dose-dependent increase”. In addition, the “ICAM-1 immunofluorescence on fixed endothelium” value in the assay on HUVECs (TNF-α 0, 5, 100 ng/ml for about 18 hours before fixation, normalized to untreated) is on record as “dose-dependent increase”. For the same substance, in the assay on HUVECs (setting [1]), the “VWF immunofluorescence on fixed endothelium” value is on record as “dose-dependent increase; also recorded: higher levels” and the “tissue factor immunofluorescence on fixed endothelium” value is reported as “dose-dependent increase; also recorded: higher levels”.
